Test results from patent publication US7138361B2, “Herbicidal heterocycles” (E. I. du Pont de Nemours and Company, priority 2000, dated 2006).

How the values were obtained:
Experiment in all cases: Test C postemergence
Format in all cases: in vivo
kochia (Kochia scoparia) = tested on: kochia (Kochia scoparia)
Procedure, shortened: (§1)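 Visual injury scores of 0–100, with 100 meaning complete control, were given relative to controls after 12–14 days in the greenhouse. Treatments used a surfactant-containing non-phytotoxic solvent formulation, sprayed on seeded pots preemergence or on 1–4-leaf plants of 2–18 cm postemergence.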

[1] = tested on: morningglory (Ipomoea hederacea)
Procedure, shortened: as §1

[2] = tested on: bermudagrass (Cynodon dactylon)
Procedure, shortened: as §1

soybean (Glycine max) = tested on: soybean (Glycine max)
Procedure, shortened: as §1

[3] = tested on: common ragweed (Ambrosia elatior)
Procedure, shortened: as §1

[4] = tested on: woolly cupgrass (Eriochloa villosa)
Procedure, shortened: as §1

[5] = tested on: johnsongrass (Sorghum halepense)
Procedure, shortened: as §1

[6] = tested on: chickweed (Stellaria media)
Procedure, shortened: as §1

[7] = tested on: pigweed (Amaranthus retroflexus)
Procedure, shortened: as §1

[8] = tested on: Surinam grass (Brachiaria decumbens)
Procedure, shortened: as §1

[9] = tested on: yellow nutsedge (Cyperus esculentus)
Procedure, shortened: as §1

[10] = tested on: velvetleaf (Abutilon theophrasti)
Procedure, shortened: as §1

[11] = tested on: lambsquarters (Chenopodium album)
Procedure, shortened: as §1

[12] = tested on: goosegrass (Eleusine indica)
Procedure, shortened: as §1

[13] = tested on: giant foxtail (Setaria faberii)
Procedure, shortened: as §1

[14] = Rate 250 g/ha, scale 0 to 100 (0 no effect, 100 complete control)
[15] = Rate 500 g/ha, scale 0 to 100 (0 no effect, 100 complete control)
[16] = Rate 125 g/ha, scale 0 to 100, 0 no effect, 100 complete control

With `CCCOc1cc(N2CCC(n3ccc(C(C)(C)C)n3)C2=O)ccc1C` (stereo not shown) [Compound 107] the “Plant response rating, Kochia” value (kochia (Kochia scoparia); Rate 62 g/ha, scale 0 to 100) was 70, the “Plant response rating, Kochia” value (kochia (Kochia scoparia); [14]) was 80 and the “Plant response rating, Kochia” value (kochia (Kochia scoparia); [15]) was 85. For the same compound, the “Plant response rating, Morningglory” value ([1]; Rate 62 g/ha, scale 0 to 100) was 60, the “Plant response rating, Morningglory” value [1, 14] was 100 and the “Plant response rating, Morningglory” value [1, 15] was 100. The “Plant response rating, Bermudagrass” value ([2]; Rate 62 g/ha, scale 0 to 100) was 0, the “Plant response rating, Bermudagrass” value [2, 16] was 0 and the “Plant response rating, Bermudagrass” value [2, 14] was 0. For the same compound, the “Plant response rating, Bermudagrass” value [2, 15] was 0, the “Plant response rating, Soybean” value (soybean (Glycine max); Rate 62 g/ha, scale 0 to 100) was 0 and the “Plant response rating, Soybean” value (soybean (Glycine max); [14]) was 20. The “Plant response rating, Soybean” value (soybean (Glycine max); [15]) was 25, the “Plant response rating, Ragweed, Common” value [3, 15] was 50 and the “Plant response rating, Cupgrass, Woolly” value ([4]; Rate 62 g/ha, scale 0 to 100) was 0. The “Plant response rating, Cupgrass, Woolly” value [4, 14] was 0, the “Plant response rating, Cupgrass, Woolly” value [4, 15] was 0 and the “Plant response rating, Johnsongrass” value ([5]; Rate 62 g/ha, scale 0 to 100) was 0. For the same compound, the “Plant response rating, Johnsongrass” value [5, 14] was 0, the “Plant response rating, Johnsongrass” value [5, 15] was 0 and the “Plant response rating, Johnsongrass” value ([5]; rate not given, scale 0 to 100) was 0. The “Plant response rating, Chickweed” value ([6]; Rate 62 g/ha, scale 0 to 100) was 50, the “Plant response rating, Chickweed” value [6, 16] was 100 and the “Plant response rating, Chickweed” value [6, 14] was 100. The “Plant response rating, Chickweed” value [6, 15] was 100, the “Plant response rating, Pigweed” value ([7]; Rate 62 g/ha, scale 0 to 100) was 50 and the “Plant response rating, Pigweed” value [7, 14] was 55. For the same compound, the “Plant response rating, Pigweed” value [7, 15] was 90, the “Plant response rating, Surinam grass” value ([8]; Rate 62 g/ha, scale 0 to 100) was 0 and the “Plant response rating, Surinam grass” value [8, 16] was 0. For the same compound, the “Plant response rating, Surinam grass” value [8, 14] was 0, the “Plant response rating, Surinam grass” value [8, 15] was 0 and the “Plant response rating, Nutsedge” value ([9]; Rate 62 g/ha, scale 0 to 100) was 0. For the same compound, the “Plant response rating, Nutsedge” value [9, 14] was 0, the “Plant response rating, Nutsedge” value [9, 15] was 0 and the “Plant response rating, Velvetleaf” value ([10]; Rate 62 g/ha, scale 0 to 100) was 30. For the same compound, the “Plant response rating, Velvetleaf” value [10, 14] was 50, the “Plant response rating, Velvetleaf” value [10, 15] was 80 and the “Plant response rating, Velvetleaf” value ([10]; scale 0 to 100) was 40. The “Plant response rating, Lambsquarters” value ([11]; Rate 62 g/ha, scale 0 to 100) was 50, the “Plant response rating, Lambsquarters” value [11, 14] was 100 and the “Plant response rating, Lambsquarters” value [11, 15] was 100. For the same compound, the “Plant response rating, Goosegrass” value ([12]; Rate 62 g/ha, scale 0 to 100) was 0, the “Plant response rating, Goosegrass” value [12, 14] was 0 and the “Plant response rating, Goosegrass” value [12, 15] was 0. For the same compound, the “Plant response rating, Foxtail, Giant” value ([13]; Rate 62 g/ha, scale 0 to 100) was 0, the “Plant response rating, Foxtail, Giant” value [13, 14] was 0 and the “Plant response rating, Foxtail, Giant” value [13, 15] was 0.

In the case of `COc1cc(N2CCC(n3ccc(C(C)C)n3)C2=O)ccc1C` (stereo not shown) [Compound 85], the “Plant response rating, Kochia” value (kochia (Kochia scoparia); Rate 62 g/ha, scale 0 to 100) is reported as 40, the “Plant response rating, Kochia” value (kochia (Kochia scoparia); [16]) is reported as 60 and the “Plant response rating, Kochia” value (kochia (Kochia scoparia); [14]) is reported as 80. For the same compound, the “Plant response rating, Kochia” value (kochia (Kochia scoparia); [15]) was 90, the “Plant response rating, Morningglory” value ([1]; Rate 62 g/ha, scale 0 to 100) was 60 and the “Plant response rating, Morningglory” value [1, 16] was 80. The “Plant response rating, Morningglory” value [1, 14] was 80, the “Plant response rating, Morningglory” value [1, 15] was 90 and the “Plant response rating, Bermudagrass” value ([2]; Rate 62 g/ha, scale 0 to 100) was 0. The “Plant response rating, Bermudagrass” value [2, 16] was 0, the “Plant response rating, Bermudagrass” value [2, 14] was 80 and the “Plant response rating, Bermudagrass” value [2, 15] was 90. For the same compound, the “Plant response rating, Soybean” value (soybean (Glycine max); Rate 62 g/ha, scale 0 to 100) was 60, the “Plant response rating, Soybean” value (soybean (Glycine max); [16]) was 60 and the “Plant response rating, Soybean” value (soybean (Glycine max); [14]) was 70. For the same compound, the “Plant response rating, Soybean” value (soybean (Glycine max); [15]) was 70, the “Plant response rating, Ragweed, Common” value ([3]; Rate 62 g/ha, scale 0 to 100) was 0 and the “Plant response rating, Ragweed, Common” value [3, 16] was 20. The “Plant response rating, Ragweed, Common” value [3, 14] was 20, the “Plant response rating, Ragweed, Common” value [3, 15] was 90 and the “Plant response rating, Cupgrass, Woolly” value ([4]; Rate 62 g/ha, scale 0 to 100) was 30. For the same compound, the “Plant response rating, Cupgrass, Woolly” value [4, 16] was 30, the “Plant response rating, Cupgrass, Woolly” value [4, 14] was 60 and the “Plant response rating, Cupgrass, Woolly” value [4, 15] was 70. The “Plant response rating, Johnsongrass” value ([5]; Rate 62 g/ha, scale 0 to 100) was 30, the “Plant response rating, Johnsongrass” value [5, 16] was 40 and the “Plant response rating, Johnsongrass” value [5, 14] was 40. For the same compound, the “Plant response rating, Johnsongrass” value [5, 15] was 70, the “Plant response rating, Chickweed” value ([6]; Rate 62 g/ha, scale 0 to 100) was 20 and the “Plant response rating, Chickweed” value [6, 16] was 70. For the same compound, the “Plant response rating, Chickweed” value [6, 14] was 100, the “Plant response rating, Chickweed” value [6, 15] was 100 and the “Plant response rating, Pigweed” value ([7]; Rate 62 g/ha, scale 0 to 100) was 60. For the same compound, the “Plant response rating, Pigweed” value [7, 16] was 70, the “Plant response rating, Pigweed” value [7, 14] was 90 and the “Plant response rating, Pigweed” value [7, 15] was 100. For the same compound, the “Plant response rating, Surinam grass” value ([8]; Rate 62 g/ha, scale 0 to 100) was 0, the “Plant response rating, Surinam grass” value [8, 16] was 20 and the “Plant response rating, Surinam grass” value [8, 14] was 20. For the same compound, the “Plant response rating, Surinam grass” value [8, 15] was 60, the “Plant response rating, Nutsedge” value ([9]; Rate 62 g/ha, scale 0 to 100) was 10 and the “Plant response rating, Nutsedge” value [9, 15] was 90. The “Plant response rating, Velvetleaf” value ([10]; Rate 62 g/ha, scale 0 to 100) was 40, the “Plant response rating, Velvetleaf” value [10, 16] was 40 and the “Plant response rating, Velvetleaf” value [10, 14] was 40. For the same compound, the “Plant response rating, Velvetleaf” value [10, 15] was 40, the “Plant response rating, Lambsquarters” value ([11]; Rate 62 g/ha, scale 0 to 100) was 70 and the “Plant response rating, Lambsquarters” value [11, 16] was 90. For the same compound, the “Plant response rating, Lambsquarters” value [11, 14] was 100, the “Plant response rating, Lambsquarters” value [11, 15] was 100 and the “Plant response rating, Goosegrass” value ([12]; Rate 62 g/ha, scale 0 to 100) was 10. For the same compound, the “Plant response rating, Goosegrass” value [12, 16] was 10, the “Plant response rating, Goosegrass” value [12, 14] was 20 and the “Plant response rating, Goosegrass” value [12, 15] was 60. The “Plant response rating, Foxtail, Giant” value ([13]; Rate 62 g/ha, scale 0 to 100) was 20, the “Plant response rating, Foxtail, Giant” value [13, 16] was 20 and the “Plant response rating, Foxtail, Giant” value [13, 14] was 40. The “Plant response rating, Foxtail, Giant” value [13, 15] was 70.
